One assay concerns the target human PDE2A1 (Homo sapiens (Human), UniProt O00408). Kind of assay: IMAP FP PDE selectivity panel, human PDE2A1. The assay is classed as biochemical. The essentials:
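GST-tagged human PDE2A1 expressed in insect cells, run at room temperature for 60 min with 50 nM FAM-cAMP containing 1000 nM cGMP, pH 7.2 Tris/MgCl2 buffer. IMAP fluorescence polarization read after binding step.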

Another assay deals with Rhesus PDE2A3 (Macaca mulatta, UniProt B3VTJ2). Description: PDE2 fluorescence polarization (IMAP FP) inhibition assay, rhesus enzyme. Type of assay: biochemical, rhesus macaque. A digest of the protocol:
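Rhesus PDE2A3 came from lysate of transiently transfected AD293 cells, diluted to give 20% substrate conversion. Substrate was 50 nM FAM-cAMP with 1 uM cGMP activator in Tris pH 7.2/MgCl2 buffer, run 60 min at room temperature over 10-point 3-fold dilutions in 1% DMSO. Read-out was IMAP fluorescence polarization (mP) after ≥1 h binding.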
(In general: In fluorescence polarisation assays a small probe gives low polarisation when free and higher when bound to something large.)

Setting [1] is: Human PDE2, Lab A, read-out: Human PDE2 Ki (nM) - Lab A.
Where [2] appears, read: Rhesus PDE2, Lab A, read-out: Rhesus PDE2 Ki (nM) - Lab A.
The mark [3] stands for this setting: Human PDE2, Lab B, read-out: Human PDE2 Ki (nM) - Lab B.
The mark [4] stands for this setting: Rhesus PDE2, Lab B, read-out: Rhesus PDE2 Ki (nM) - Lab B.

Consider 26 molecules from US9815796B2 (Merck Sharp & Dohme Corp., priority 2013, dated 2017).

Where two headings read alike, the source gives them in different places.

Chain of human PDE2A1 (O00408 other isoform, or with tags, fused parts or gaps): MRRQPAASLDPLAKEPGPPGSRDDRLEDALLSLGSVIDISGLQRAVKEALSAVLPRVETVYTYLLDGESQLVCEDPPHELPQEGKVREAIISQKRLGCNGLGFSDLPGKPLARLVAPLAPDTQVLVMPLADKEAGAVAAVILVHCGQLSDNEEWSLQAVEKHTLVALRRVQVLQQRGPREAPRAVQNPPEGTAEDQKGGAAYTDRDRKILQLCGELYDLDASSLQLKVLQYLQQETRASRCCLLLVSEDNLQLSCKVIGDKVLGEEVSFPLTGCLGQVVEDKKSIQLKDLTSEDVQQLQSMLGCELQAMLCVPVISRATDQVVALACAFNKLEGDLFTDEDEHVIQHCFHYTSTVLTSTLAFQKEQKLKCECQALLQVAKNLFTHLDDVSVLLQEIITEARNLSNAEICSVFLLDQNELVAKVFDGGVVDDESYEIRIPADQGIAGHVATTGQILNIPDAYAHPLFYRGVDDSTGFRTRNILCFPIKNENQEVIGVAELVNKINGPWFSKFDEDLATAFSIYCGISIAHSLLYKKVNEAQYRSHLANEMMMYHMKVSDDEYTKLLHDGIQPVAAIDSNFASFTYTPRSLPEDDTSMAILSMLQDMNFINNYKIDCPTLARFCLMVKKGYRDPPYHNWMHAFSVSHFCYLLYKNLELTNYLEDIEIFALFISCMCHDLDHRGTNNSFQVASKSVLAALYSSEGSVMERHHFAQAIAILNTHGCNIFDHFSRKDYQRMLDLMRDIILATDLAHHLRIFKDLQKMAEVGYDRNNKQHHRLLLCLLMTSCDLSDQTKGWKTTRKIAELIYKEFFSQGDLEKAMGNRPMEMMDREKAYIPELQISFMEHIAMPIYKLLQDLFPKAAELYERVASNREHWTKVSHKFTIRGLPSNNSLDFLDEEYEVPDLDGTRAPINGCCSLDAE
Chain of Rhesus PDE2A3 (B3VTJ2 1-941): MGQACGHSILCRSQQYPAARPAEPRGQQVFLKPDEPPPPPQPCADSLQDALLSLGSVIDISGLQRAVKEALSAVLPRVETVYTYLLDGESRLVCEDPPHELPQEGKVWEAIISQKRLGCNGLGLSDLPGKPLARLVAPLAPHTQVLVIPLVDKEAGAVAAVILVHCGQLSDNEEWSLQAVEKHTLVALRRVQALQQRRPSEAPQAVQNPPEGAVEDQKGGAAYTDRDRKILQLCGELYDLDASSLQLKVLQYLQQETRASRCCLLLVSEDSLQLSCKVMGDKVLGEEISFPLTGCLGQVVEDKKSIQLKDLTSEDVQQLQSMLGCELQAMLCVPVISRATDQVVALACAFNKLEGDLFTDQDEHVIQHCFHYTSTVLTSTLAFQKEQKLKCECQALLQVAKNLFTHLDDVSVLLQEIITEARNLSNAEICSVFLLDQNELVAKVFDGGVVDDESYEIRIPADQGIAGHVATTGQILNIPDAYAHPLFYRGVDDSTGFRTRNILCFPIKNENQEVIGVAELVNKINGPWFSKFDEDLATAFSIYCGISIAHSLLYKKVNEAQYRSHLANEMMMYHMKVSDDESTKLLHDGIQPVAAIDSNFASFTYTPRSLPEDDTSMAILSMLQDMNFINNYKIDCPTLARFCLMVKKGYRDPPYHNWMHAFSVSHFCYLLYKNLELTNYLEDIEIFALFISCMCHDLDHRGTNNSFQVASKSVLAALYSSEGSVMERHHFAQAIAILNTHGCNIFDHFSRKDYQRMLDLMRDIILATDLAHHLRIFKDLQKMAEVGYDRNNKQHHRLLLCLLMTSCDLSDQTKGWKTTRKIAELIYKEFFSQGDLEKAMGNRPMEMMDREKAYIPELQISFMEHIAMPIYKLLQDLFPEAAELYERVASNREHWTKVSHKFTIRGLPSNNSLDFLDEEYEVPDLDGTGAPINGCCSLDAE

On to `COc1ccc2cc(C(C)NC(=O)c3cc(=O)[nH]c(C)n3)ccc2c1` (single isomer, unassigned) [Example 313, (R)- or (S)-N-[1-(6-methoxynaphthalen-2-yl)ethyl]-2-methyl-6-oxo-1,6-dihydropyrimidine-4-carboxamide], for which the Ki (as a rule, a measure of affinity in units of concentration, obtained from inhibition or displacement) on human PDE2A1 (setting [1]) was found to be 54 nM; on Rhesus PDE2A3 (setting [2]) it was 51 nM.
On the same counts, the results for `Cc1nc(C(=O)N[C@@H](c2ccc(SC(F)(F)F)cc2)C2CC2)cc(=O)[nH]1` [Example 41, N-[(R)-cyclopropyl{4-[(trifluoromethyl)sulfanyl]phenyl}methyl]-2-methyl-6-oxo-1,6-dihydropyrimidine-4-carboxamide] are 5.2 nM and 9.2 nM.
On the same counts, the results for `C[C@@H](NC(=O)c1cc(=O)[nH]c(-c2ncccn2)n1)c1ccc(C(F)(F)F)cc1F` [Example 99, N-[(1R)-1-[2-fluoro-4-(trifluoromethyl)phenyl]ethyl}-6-oxo-1,6-dihydro-2,2′-bipyrimidine-4-carboxamide] are 24 nM and 58 nM.
As to `Cc1nc(C(=O)N[C@@H](c2ccc(C3CC3)cc2)C(C)(C)C)cc(=O)[nH]1` [Example 63, (R)-N-(1-(4-cyclopropylphenyl)-2,2-dimethylpropyl)-2-methyl-6-oxo-1,6-dihydropyrimidine-4-carboxamide], the Ki on human PDE2A1 (setting [3]) was determined as 2 nM; on Rhesus PDE2A3 (setting [4]) it was 1.9 nM.
Take `COc1ccc(Cc2nc(C(=O)N[C@@H](c3ccc(SC(F)(F)F)cc3)C(C)(C)C)cc(=O)[nH]2)cc1F` [Example 507, N-[(1R)-2,2-dimethyl-1-{4-[(trifluoromethyl)sulfanyl]phenyl}propyl]-2-(3-fluoro-4-methoxybenzyl)-6-oxo-1,6-dihydropyrimidine-4-carboxamide]: the Ki at human PDE2A1 (setting [3]) is 1 nM; at Rhesus PDE2A3 (setting [4]) it was 1.1 nM.
In the same order, the values of `CC(C)(C)[C@@H](NC(=O)c1cc(=O)[nH]c(C2CC2)n1)c1ccc(OC(F)(F)F)c(F)c1` [Example 437, 2-cyclopropyl-N-{(1R)-1-[3-fluoro-4-(trifluoromethoxy)phenyl]-2,2-dimethylpropyl}-6-oxo-1,6-dihydropyrimidine-4-carboxamide] are 1.2 nM and 1.2 nM.
In the same order, the values of `COc1ccc(Cc2nc(C(=O)N[C@@H](c3ccc(SC(F)(F)F)cc3)C(C)C)cc(=O)[nH]2)cc1F` [Example 511, 2-(3-fluoro-4-methoxybenzyl)-N-[(1R)-2-methyl-1-{4-[(trifluoromethyl)sulfanyl]phenyl}propyl]-6-oxo-1,6-dihydropyrimidine-4-carboxamide] are 1.4 nM and 1.2 nM.
For the molecule `C[C@@H](NC(=O)c1cc(=O)[nH]c(-c2ccc(F)c(F)c2)n1)c1ccc(C(F)(F)F)cc1` [Example 139, 2-(3,4-difluorophenyl)-6-oxo-N-{(1R)-1-[4-(trifluoromethyl)phenyl]ethyl}-1,6-dihydropyrimidine-4-carboxamide], the Ki at human PDE2A1 (setting [1]) was 144 nM; on Rhesus PDE2A3 (setting [2]), 138 nM.
In the same order, the values of `O=C(NC1(c2ccc(OC(F)(F)F)cc2)CCC1)c1cc(=O)[nH]c(-c2ncccn2)n1` [Example 290, 6-oxo-N-(1-(4-(trifluoromethoxy)phenyl)cyclobutyl)-1,6-dihydro-[2,2′-bipyrimidine]-4-carboxamide] are 540 nM and 942 nM.
Take `Cc1nc(C(=O)NC2(c3ccc(S(F)(F)(F)(F)F)cc3)CC2)cc(=O)[nH]1` [Example 622, 2-methyl-6-oxo-N-{1-[4-(pentafluoro-λ^6-sulfanyl)phenyl]cyclopropyl}-1,6-dihydropyrimidine-4-carboxamide]: the results for the Ki at human PDE2A1 (setting [3]) and at Rhesus PDE2A3 (setting [4]) were 42 nM and 32 nM, respectively.
On the same counts, the results for `COc1ccc(C(C)(C)c2nc(C(=O)N[C@@H](c3ccc(C(F)(F)F)cc3)C3CC3)cc(=O)[nH]2)cc1` [Example 502, N-{(R)-cyclopropyl[4-(trifluoromethyl)phenyl]methyl}-2-[1-(4-methoxyphenyl)-1-methylethyl]-6-oxo-1,6-dihydropyrimidine-4-carboxamide] are 75 nM and 115 nM.
On the same counts, the results for `COc1ccc(Cc2nc(C(=O)N[C@@H](c3ccc(OC(F)(F)F)cc3)C(C)C)cc(=O)[nH]2)cc1F` [Example 517, 2-(3-fluoro-4-methoxybenzyl)-N-{(1R)-2-methyl-1-[4-(trifluoromethoxy)phenyl]propyl}-6-oxo-1,6-dihydropyrimidine-4-carboxamide] are 1.7 nM and 1.3 nM.
In the same order, the values of `COc1ccc(Cc2nc(C(=O)N[C@@H](c3ccc(S(F)(F)(F)(F)F)cc3)C3CC3)cc(=O)[nH]2)cc1` [Example 468, N-{(R)-cyclopropyl[4-(pentafluoro-λ^6-sulfanyl)phenyl]methyl}-2-(4-methoxybenzyl)-6-oxo-1,6-dihydropyrimidine-4-carboxamide] are 2.3 nM and 2.8 nM.
Regarding `CC(C)(NC(=O)c1cc(=O)[nH]c(-c2ccccc2)n1)c1ccc(C(F)(F)F)cc1` [Example 280, N-{1-methyl-1-[4-(trifluoromethyl)phenyl]ethyl}-6-oxo-2-phenyl-1,6-dihydropyrimidine-4-carboxamide], the inhibition constant Ki is 16 nM at human PDE2A1 (setting [1]) and 19 nM on Rhesus PDE2A3 (setting [2]).
As for `O=C(N[C@@H](c1ccc(S(F)(F)(F)(F)F)cc1)C1CC1)c1cc(=O)[nH]c(-c2ncccn2)n1` [Example 412, N-{(R)-cyclopropyl[4-(pentafluoro-λ^6-sulfanyl)phenyl]methyl}-6-oxo-1,6-dihydro-2,2′-bipyrimidine-4-carboxamide], the figures for the Ki on human PDE2A1 (setting [3]) and on Rhesus PDE2A3 (setting [4]) were 10 nM and 9.9 nM, respectively.
Take `O=C(NC1(c2ccc(OC(F)(F)F)cc2)CC1)c1cc(=O)[nH]c(-c2ncccn2)n1` [Example 285, 6-oxo-N-{1-[4-(trifluoromethoxy)phenyl]cyclopropyl}-1,6-dihydro-2,2′-bipyrimidine-4-carboxamide]: the Ki at human PDE2A1 (setting [1]) and at Rhesus PDE2A3 (setting [2]) was 46 nM throughout.
As to `COC(=O)C(NC(=O)c1cc(=O)[nH]c(C)n1)c1ccc(C(F)(F)F)cc1` (racemic) [Example 325, Methyl 2-(2-methyl-6-oxo-1,6-dihydropyrimidine-4-carboxamido)-2-(4-(trifluoromethyl)phenyl)-acetate], the Ki was 687 nM on human PDE2A1 (setting [1]) and 1100 nM on Rhesus PDE2A3 (setting [2]).
On the same counts, the results for `O=C(NC1(c2ccc(SC(F)(F)F)cc2)CC1)c1cc(=O)[nH]c(-c2ccccc2)n1` [Example 159, 6-oxo-2-phenyl-N-(1-{4-[(trifluoromethyl)sulfanyl]phenyl}cyclopropyl)-1,6-dihydropyrimidine-4-carboxamide] are 4.9 nM and 7.6 nM.
With `O=C(N[C@@H](c1ccc(C(F)(F)F)c(F)c1)C1CC1)c1cc(=O)[nH]c(C2CC2)n1` [Example 210, 2-cyclopropyl-N-{(R)-cyclopropyl[3-fluoro-4-(trifluoromethyl)phenyl]methyl}-6-oxo-1,6-dihydropyrimidine-4-carboxamide], the Ki at human PDE2A1 (setting [1]) is 3 nM; on Rhesus PDE2A3 (setting [2]), 6 nM.
In the same order, the values of `Cc1nc(C(=O)NC(C)c2ccc3cc[nH]c3c2)cc(=O)[nH]1` (stereo not drawn) [Example 303, N-(1-(1H-indol-6-yl)ethyl)-2-methyl-6-oxo-1,6-dihydropyrimidine-4-carboxamide] are 215 nM and 208 nM.
Turning to `O=C(N[C@@H](c1ccc(SC(F)(F)F)c(F)c1)C1CC1)c1cc(=O)[nH]c(-c2ccccc2)n1` [Example 417, N-[(R)-cyclopropyl{3-fluoro-4-[(trifluoromethyl)sulfanyl]phenyl}methyl]-6-oxo-2-phenyl-1,6-dihydropyrimidine-4-carboxamide], the figures for the Ki on human PDE2A1 (setting [3]) and at Rhesus PDE2A3 (setting [4]) were 9.8 nM and 12 nM, respectively.
As for `COC(=O)c1ccc([C@@H](C)NC(=O)c2cc(=O)[nH]c(-c3ccccc3)n2)cc1` [Example 359, methyl 4-[(1R)-1-{[(6-oxo-2-phenyl-1,6-dihydropyrimidin-4-yl)carbonyl]amino}ethyl]benzoate], the Ki at human PDE2A1 (setting [3]) amounted to 129 nM; at Rhesus PDE2A3 (setting [2]) it was 62 nM; at Rhesus PDE2A3 (setting [4]) it was 173 nM.
Turning to `C[C@@H](NC(=O)c1cc(=O)[nH]c(-c2ccccc2)n1)c1ccc(C(F)(F)F)c(F)c1F` [Example 408, N-{(1R)-1-[2,3-difluoro-4-(trifluoromethyl)phenyl]ethyl}-6-oxo-2-phenyl-1,6-dihydropyrimidine-4-carboxamide], the inhibitory constant (Ki) on human PDE2A1 (setting [3]) came out at 11 nM; at Rhesus PDE2A3 (setting [4]), 17 nM.
For the molecule `O=C(N[C@@H](c1ccc(OC(F)(F)F)c(F)c1)C1CC1)c1cc(=O)[nH]c(-c2ncccn2)n1` [Example 93, N-{(R)-cyclopropyl[3-fluoro-4-(trifluoromethoxy)phenyl]methyl}-6-oxo-1,6-dihydro-2,2′-bipyrimidine-4-carboxamide], the Ki at human PDE2A1 (setting [1]) was 9.6 nM; on Rhesus PDE2A3 (setting [2]), 35 nM.
As for `CC(C)[C@@H](NC(=O)c1cc(=O)[nH]c(-c2ncccn2)n1)c1ccc(C(F)(F)F)c(F)c1` [Example 248, N-{(1R)-1-[3-fluoro-4-(trifluoromethyl)phenyl]-2-methylpropyl}-6-oxo-1,6-dihydro-2,2′-bipyrimidine-4-carboxamide], the Ki at human PDE2A1 (setting [3]) was found to be 3.5 nM; on Rhesus PDE2A3 (setting [2]), 2 nM; at Rhesus PDE2A3 (setting [4]), 3.4 nM.
Consider `COc1ccc2cc(C(C)NC(=O)c3cc(=O)[nH]c(-c4ncccn4)n3)ccc2c1` (stereo not drawn) [Example 84, N-[1-(6-methoxynaphthalen-2-yl)ethyl]-6-oxo-1,6-dihydro-2,2′-bipyrimidine-4-carboxamide], for which the Ki on human PDE2A1 (setting [1]) was 28 nM; at Rhesus PDE2A3 (setting [2]), 117 nM.
